From US6423732B1, “Synergistic combinations of cyproconazole” (Syngenta Participations AG, priority 1992, dated 2002)

Assays:
Assay in all cases: Wood preservation test ES 84/113, pine sapwood, weight loss of wood samples
Type in all cases: cell-based
[1] = system: Coniophora puteana (cellar fungus); settings: substance alone
Protocol: (§1) Determination of the Activity of the Cyproconazole in Combination with Dimethyldidecylammonium Chloride Against Wood-destroying Basidiomycetes
(§2) The active substances were tested in accordance with European Testing Standards ES 84 (1979) and 113 (1986). Treatment with the active substances prevents the wood from being destroyed. The effect of the treatment is quantified indirectly via the non-existing weight loss of the wood samples.
(§3) The wood sample used was pine sapwood, and the test fungi used were Coniophora puteana (cellar fungus), Poria plazenta, Gloeophyllum trabeum and Trametes (Coriolus) versicolor. Markedly smaller amounts of the combination according to the invention of cyproconazole (A: 2-(4-chlorophenyl)-3-cyclopropyl-3-methyl-1-(1H,1,2,4-triazol-1-yl)-butan-2-ol) and dimethyldidecylammonium chloride (B1) have the same result (0% weight loss) as cyproconazole or B1 alone. Comparably good results were also obtained when beech was used as the wood sample.

[2] = system: Trametes (Coriolus) versicolor; settings: substance alone
Protocol: as §1, §2, §3

Poria plazenta = settings: substance alone
Protocol: as §1, §2, §3

Gloeophyllum trabeum = settings: Gloephyllum, substance alone
Protocol: as §1, §2, §3

| SMILES | Amount (g/m^3) of active Substance at 0% Weight Loss [1] | Amount (g/m^3) of active Substance at 0% Weight Loss [2] | Amount (g/m^3) of active Substance at 0% Weight Loss (Poria plazenta) | Amount (g/m^3) of active Substance at 0% Weight Loss (Gloeophyllum trabeum) |
| --- | --- | --- | --- | --- |
| CC(C1CC1)C(O)(Cn1cncn1)c1ccc(Cl)cc1 (centres unmarked) [A] | 247 g g/m^3 | 418 g g/m^3 | 243 g g/m^3 | 247 g g/m^3 |
| CCCCCCCCCC[N+](C)(C)CCCCCCCCCC.[Cl-] [B1, dimethyldidecylammonium chloride] | 12,415 g g/m^3 | 2,675 g g/m^3 | 3,175 g g/m^3 | 12,505 g g/m^3 |
